According to PMC2175304 (Nucleic Acids Research, 2007):

Target: Trm6p/Trm61p complex (yeast tRNA m^1A58 Mtase) (Saccharomyces cerevisiae, UniProt P46959)
Experiment: biochemical

Chain of Trm6p/Trm61p complex (yeast tRNA m^1A58 Mtase) (P46959 whole entry): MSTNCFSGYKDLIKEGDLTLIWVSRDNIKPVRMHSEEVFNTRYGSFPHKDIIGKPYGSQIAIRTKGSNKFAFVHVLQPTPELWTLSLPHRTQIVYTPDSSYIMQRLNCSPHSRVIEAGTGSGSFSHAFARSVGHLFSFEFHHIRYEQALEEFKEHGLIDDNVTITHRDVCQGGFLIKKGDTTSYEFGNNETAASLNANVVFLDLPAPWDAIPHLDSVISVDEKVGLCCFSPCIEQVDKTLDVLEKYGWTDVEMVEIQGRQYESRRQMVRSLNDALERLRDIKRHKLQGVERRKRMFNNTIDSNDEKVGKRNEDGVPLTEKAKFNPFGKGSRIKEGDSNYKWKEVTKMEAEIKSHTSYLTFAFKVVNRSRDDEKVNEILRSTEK
Chain of Trm6p/Trm61p complex (yeast tRNA m^1A58 Mtase) (P41814 whole entry partner): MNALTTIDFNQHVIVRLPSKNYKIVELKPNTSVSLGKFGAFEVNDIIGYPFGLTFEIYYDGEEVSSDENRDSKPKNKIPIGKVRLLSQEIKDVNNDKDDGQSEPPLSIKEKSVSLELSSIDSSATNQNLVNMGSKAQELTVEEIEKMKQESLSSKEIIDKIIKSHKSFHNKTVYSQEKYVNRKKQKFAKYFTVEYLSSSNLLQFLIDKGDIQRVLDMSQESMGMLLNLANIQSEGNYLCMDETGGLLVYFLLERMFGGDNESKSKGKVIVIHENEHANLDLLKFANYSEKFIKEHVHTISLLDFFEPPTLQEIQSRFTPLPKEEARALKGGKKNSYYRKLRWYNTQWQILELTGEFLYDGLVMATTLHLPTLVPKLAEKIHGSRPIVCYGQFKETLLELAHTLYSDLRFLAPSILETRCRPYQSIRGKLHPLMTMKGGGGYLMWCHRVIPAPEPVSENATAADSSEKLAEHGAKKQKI

- Kd: 376 ± 73 µM
Structure (SMILES): C[S+](CC[C@H](N)C(=O)O)C[C@H]1O[C@@H](n2cnc3c(N)ncnc32)[C@H](O)[C@@H]1O (stereo partly shown) [AdoMet]
